From patent publication US10881110B2, “Herbicidal compositions comprising isoxazolo[5,4-b]pyridines” (BASF SE, priority 2014, dated 2021)

Tests used:
Experiment in all cases: greenhouse post-emergence herbicidal test
AMBEL = assay type: in vivo, Ambrosia artemisiifolia; design: key: rating on a scale from 0 to 100
Procedure: (§1) The culture containers used were plastic pots containing medium loamy sand with approximately 4.6% of humus and 69.9% sand as substrate. The seeds of the test plants were sown separately for each species.
(§2) For the post-emergence treatment, the test plants were grown to a plant height of from 1 to 15 cm, depending on the plant habit, and only then treated with the active compounds which had been suspended or emulsified in water. To this end, the test plants were either sown directly, and grown in the same containers, or they were first grown separately as seedlings and transplanted into the test containers a few days prior to treatment.
(§3) Depending on the species, the plants were kept at 10-25° C. and 20-35° C., respectively.
(§4) The test period extended over 1 to 3 weeks. During this time, the plants were tended and their response to the individual treatments was evaluated 20 days after treatment except mentioned otherwise.
(§5) Evaluation was carried out using a scale from 0 to 100. 100 means no emergence of the plants, or complete destruction of at least the above-ground parts, and 0 means no damage or normal course of growth.
(§6) The respective stated components A and B, and, if appropriate, C, were formulated as a 10% by weight strength emulsion concentrate and, with addition of the amount of solvent system, introduced into the spray liquor used for applying the active compound. In the examples, the solvent used was water.
(§7) In the examples below, using the method of S. R. Colby (1967) “Calculating synergistic and antagonistic responses of herbicide combinations”, Weeds 15, p. 22 ff., the value E, which is expected if the activity of the individual active compounds is only additive, was calculated. E=X+Y−(X·Y/100)

ERICA = assay type: in vivo, Conyza canadensis; design: key to herbicidal activity against ERICA found: rating on a scale from 0 to 100; settings: post emergence; for pest or weed control at 9.375 g/ha: Erigeron canadensis, post-emergence, 480 h, 9.375 g/ha a.i., read-out: herbicidal activity against ERICA found
Procedure, shortened: (§8)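 Herbicidal activity scored on a 0 (no damage) to 100 (plants destroyed) scale, usually 20 days after water-based spraying of 1–15 cm plants grown in loamy sand at 10-25 °C or 20-35 °C depending on species. Components were applied from 10% emulsion concentrates; Colby's E=X+Y−(X·Y/100) gives the additive expectation.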

GERDI = assay type: in vivo, Geranium dissectum; design: key to herbicidal activity against GERDI found: rating on a scale from 0 to 100; settings: post emergence
Procedure, shortened: as §8

MATCH = assay type: in vivo, Matricaria recutita; design: key to herbicidal activity against MATCH found: rating on a scale from 0 to 100; settings: post emergence; for pest or weed control at 9.375 g/ha: Matricaria chamomilla, post-emergence, 480 h, 9.375 g/ha a.i., read-out: herbicidal activity against MATCH found
Procedure, shortened: as §8

PAPRH = assay type: in vivo, Papaver rhoeas; design: key: rating on a scale from 0 to 100
Procedure, shortened: as §8

SASKR = assay type: in vivo, Salsola kali; design: key: scale 0 to 100; settings: for herbicidal activity against SASKR found: 9.375 g/ha a.i.
Procedure: as §1, §2, §3, §4, §5, §6, §7

IPOHE = assay type: in vivo, Ipomoea hederacea; design: key to herbicidal activity against IPOHE found: rating on a scale from 0 to 100; settings: post emergence
Procedure, shortened: (§9)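 Post-emergence greenhouse test: plants in loamy sand, sprayed at 1–15 cm height with aqueous spray liquor from 10% emulsion concentrates, kept at 10-25 °C or 20-35 °C by species. Damage scored 0–100 (100 = complete destruction), usually 20 days after treatment. Expected additive effect E from Colby: E=X+Y−(X·Y/100).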

AMARE = assay type: in vivo, Amaranthus retroflexus
Procedure: as §1, §2, §3, §4, §5, §6, §7

CHEAL = assay type: in vivo, Chenopodium album; settings: a.i. g/ha: I.1 15.6, B.190 62.5, 20 days after treatment
Procedure: as §1, §2, §3, §4, §5, §6, §7

POLAV = assay type: in vivo, Polygonum aviculare; design: key: rating on a scale from 0 to 100
Procedure: as §1, §2, §3, §4, §5, §6, §7

POLCO = assay type: in vivo, Polygonum convolvulus; design: key to herbicidal activity against POLCO found: rating on a scale from 0 to 100; settings: post emergence
Procedure, shortened: as §9

STEME = assay type: in vivo, Stellaria media; design: key: scale 0 to 100; settings: a.i. g/ha: I.1 31.25, B.190 62.5, 20 days after treatment
Procedure: as §1, §2, §3, §4, §5, §6, §7

ALOMY = assay type: in vivo, Alopecurus myosuroides; design: key to herbicidal activity against ALOMY found: rating on a scale from 0 to 100; settings: single active, post emergence
Procedure, shortened: as §8

APESV = assay type: in vivo, Apera spica-venti; design: key to herbicidal activity against APESV found: rating on a scale from 0 to 100; settings: single active, 175 g/ha a.i., post emergence
Procedure, shortened: as §8

ECHCG = assay type: in vivo, Echinochloa crus-galli; design: key to herbicidal activity against ECHCG found / herbicidal activity against ECHCH found: scale 0 to 100; settings: single active, 175 g/ha a.i., post emergence
Procedure, shortened: as §8

VIOAR = assay type: in vivo, Viola arvensis; design: key to herbicidal activity against VIOAR found / herbicidal activity against VIOLA found: rating on a scale from 0 to 100; settings: post emergence
Procedure, shortened: as §9

CONAR = assay type: in vivo, Convolvulus arvensis; design: key: rating on a scale from 0 to 100
Procedure: as §1, §2, §3, §4, §5, §6, §7

[1] = a.i. g/ha: I.1 15.6, B.190 62.5, 20 days after treatment
[2] = a.i. g/ha: I.1 31.25, B.190 62.5, 20 days after treatment
[3] = a.i. g/ha: I.1 31.25, bentazon Na 125, 20 days after treatment

Structure (SMILES): CS(=O)(=O)c1ccc(C(=O)C2C(=O)CCCC2=O)c([N+](=O)[O-])c1 [B.101, mesotrione]
- herbicidal activity against AMBEL found (AMBEL; 9.375 g/ha a.i.): 80
- pest or weed control at 9.375 g/ha (ERICA): 80%
- pest or weed control at 9.375 g/ha (GERDI; Geranium dissectum, post-emergence, 480 h, 9.375 g/ha a.i., read-out: herbicidal activity against GERDI found): 0%
- pest or weed control at 9.375 g/ha (MATCH): 75%
- herbicidal activity against PAPRH found (PAPRH; 9.375 g/ha a.i.): 35
- herbicidal activity against SASKR found (SASKR): 75

Structure (SMILES): CS(=O)(=O)c1ccc(C(=O)C2C(=O)CCCC2=O)c(Cl)c1COCC(F)(F)F [B.106, tembotrione]
- pest or weed control at 9.375 g/ha (ERICA): 90%
- pest or weed control at 9.375 g/ha (IPOHE; Ipomoea hederacea, post-emergence, 480 h, 9.375 g/ha a.i., read-out: herbicidal activity against IPOHE found): 70%
- pest or weed control at 9.375 g/ha (MATCH): 65%
- herbicidal activity against SASKR found (SASKR): 65

Structure (SMILES): Cc1ccc(NC(=O)N(C)C)cc1Cl [B.190, chlorotoluron]
- herbicidal activity against AMARE found (AMARE; [1]): 40%
- herbicidal activity against AMARE found (AMARE; [2]): 40%
- herbicidal activity against CHEAL found (CHEAL): 95%
- herbicidal activity against GERDI found (GERDI; [2]): 60%
- herbicidal activity against IPOHE found (IPOHE; [1]): 60%
- herbicidal activity against IPOHE found (IPOHE; [2]): 60%
- herbicidal activity against POLAV found (POLAV; [1]): 50%
- herbicidal activity against POLCO found (POLCO; [1]): 50%
- herbicidal activity against POLCO found (POLCO; [2]): 50%
- herbicidal activity against STEME found (STEME): 70%

Structure (SMILES): COCC(C)N(C(=O)CCl)c1c(C)csc1C (stereo not shown) [DMTA]
- herbicidal activity against ALOMY found (ALOMY; 175 g/ha a.i.): 0
- herbicidal activity against ALOMY found (ALOMY; 350 g/ha a.i.): 45
- herbicidal activity against AMBEL found (AMBEL; single active, 175 g/ha a.i.): 0
- herbicidal activity against AMBEL found (AMBEL; single active, 350 g/ha a.i.): 20
- herbicidal activity against APESV found (APESV): 95
- herbicidal activity against ECHCG found (ECHCG): 90
- herbicidal activity against ERICA found (ERICA; single active, 175 g/ha a.i.): 15
- herbicidal activity against GERDI found (GERDI; single active, 175 g/ha a.i.): 30
- herbicidal activity against GERDI found (GERDI; single active, 350 g/ha a.i.): 60
- herbicidal activity against IPOHE found (IPOHE; single active, 350 g/ha a.i.): 25
- herbicidal activity against MATCH found (MATCH; single active, 175 g/ha a.i.): 30
- herbicidal activity against MATCH found (MATCH; single active, 350 g/ha a.i.): 30
- herbicidal activity against POLCO found (POLCO; single active, 175 g/ha a.i.): 0
- herbicidal activity against POLCO found (POLCO; single active, 350 g/ha a.i.): 25
- herbicidal activity against VIOLA found (VIOAR; single active, 175 g/ha a.i.): 0

Structure (SMILES): CC(C)N1C(=O)c2ccccc2[N-]S1(=O)=O.[Na+] [bentazon Na, bentazon-sodium]
- herbicidal activity against AMARE found (AMARE; [3]): 75%
- herbicidal activity against POLAV found (POLAV; [3]): 40%
- herbicidal activity against POLCO found (POLCO; [3]): 40%

Structure (SMILES): Cc1nn(C)c(O)c1C(=O)c1ccc(C(F)(F)F)cc1S(C)(=O)=O [pyrasulfatole]
- herbicidal activity against CONAR found (CONAR; 10 g/ha a.i.): 60
- herbicidal activity against CONAR found (CONAR; 20 g/ha a.i.): 65
- herbicidal activity against CONAR found (CONAR; 40 g/ha a.i.): 85
- herbicidal activity against GERDI found (GERDI; 40 g/ha a.i.): 50
- herbicidal activity against MATCH found (MATCH; 10 g/ha a.i.): 50
- herbicidal activity against MATCH found (MATCH; 40 g/ha a.i.): 50
- herbicidal activity against PAPRH found (PAPRH; 10 g/ha a.i.): 50
- herbicidal activity against PAPRH found (PAPRH; 20 g/ha a.i.): 65
- herbicidal activity against PAPRH found (PAPRH; 40 g/ha a.i.): 65
- herbicidal activity against POLAV found (POLAV; 20 g/ha a.i.): 70
- herbicidal activity against SASKAR found (SASKR; 10 g/ha a.i.): 90
- herbicidal activity against VIOAR found (VIOAR; 10 g/ha a.i.): 0
- herbicidal activity against VIOAR found (VIOAR; 20 g/ha a.i.): 40
- herbicidal activity against VIOAR found (VIOAR; 40 g/ha a.i.): 60
